PMC11940194, “Synthesis, Antiproliferative Activity, and ADME Profiling of Novel Racemic and Optically Pure Aryl-Substituted Purines and Purine Bioisosteres” (Biomolecules, 2025)

Tests used:
[1] = system: breast adenocarcinoma (MCF7) cells; assay: Antiproliferative MTT assay, MCF-7; type: cell-based, human; settings: for IC50: Homo sapiens, MCF7, 72 h incubation, MTT, mean ± SD; for SI (MCF-7): SI = [IC50 HFF]/[IC50 MCF-7]
Method in brief: (§1)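 MTT read-out after 72 h exposure to compounds (0.01–100 µM, fivefold/tenfold dilutions in growth medium). Seeding 3000 cells/well for carcinoma lines, 5000 for HFF-1. IC50 by linear regression; 5-FU reference.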

[2] = system: pancreatic ductal adenocarcinoma (CFPAC-1) cells; assay: Antiproliferative MTT assay, CFPAC-1; type: cell-based, human; settings: for IC50: Homo sapiens, CFPAC-1, 72 h, 72 h incubation, MTT, mean ± SD; for SI (CFPAC-1): SI = [IC50 HFF]/[IC50 CFPAC-1]
Method in brief: as §1

[3] = system: colorectal carcinoma (HT-29) cells; assay: Antiproliferative MTT assay, HT-29; type: cell-based, human; settings: for IC50: Homo sapiens, HT-29, 72 h, 72 h incubation, MTT, mean ± SD
Method in brief: as §1

[4] = system: hepatocellular carcinoma (HepG2) cells; assay: Antiproliferative MTT assay, HepG2; type: cell-based, human; settings: for IC50: Homo sapiens, HepG2, 72 h, 72 h incubation, MTT, mean ± SD
Method in brief: as §1

[5] = system: normal skin fibroblasts (HFF-1); assay: Cytotoxicity MTT assay, normal skin fibroblasts; type: cell-based, human; settings: Homo sapiens, HFF-1, 72 h, 72 h incubation, mean ± SD
Method in brief: as §1

[6] = system: MCF-7, CFPAC-1, HT-29, HepG2 tumor cell lines and HFF-1 fibroblasts; assay: Antiproliferative activity, whole cell line panel; type: cell-based, human; settings: tested cell lines
Method: The human ATCC tumor cell lines breast adenocarcinoma (MCF7), colorectal carcinoma (HT-29), pancreatic ductal adenocarcinoma (CFPAC-1), hepatocellular carcinoma (HepG2), and normal skin fibroblasts (HFF) derived from ATCC (American Type Culture Collection) were cultured in Dulbecco’s Modified Eagle Medium (DMEM) or Minimum Essential Medium (MEM) supplemented with 10% fetal bovine serum (FBS), 2 mM L-glutamine, 100 U/mL penicillin, and 100 µg/mL streptomycin (Lonza, Basel, Switzerland) in a humidified atmosphere with 5% CO2 at 37 °C. For the experiment, carcinoma cell lines and normal human cell lines were seeded in 96-well microtiter plates at a density of 3000 cells per well and 5000 cells per well, respectively, depending on the doubling time of the specific cell line. The test substances were then added at fivefold, tenfold dilutions (0.01 to 100 µM), freshly prepared in the growth medium on the day of testing, and incubated for a further 72 h. After 72 h of incubation, the growth rate of the cells was determined using the MTT assay according to the manufacturer’s guidelines. […] The IC50 values were calculated from the dose–response curves using linear regression analysis. The experiment was performed in tetraplicates in two individual experiments.
Newly synthesized compounds were evaluated for their cytotoxic activity in vitro against four human cancer cell lines, including human breast adenocarcinoma (MCF-7), ductal pancreatic adenocarcinoma (CFPAC-1), colorectal carcinoma (HT-29), and hepatocellular carcinoma (HepG2), as well as on non-cancerous skin fibroblasts (HFF-1), to check for non-specific toxicity. Furthermore, 5-Fluorouracil (5-FU) was used as a reference drug. The results are expressed as 50% inhibitory concentration (IC50) values and are listed in Table 2, Table 3, Table 4 and Table 5.

[7] = system: MDCKII-MDR1 cells (P-glycoprotein); assay: MDCKII-MDR1 permeability assay; type: in vitro ADME, canine cells with over-expressed human MDR1 gene; settings: permeability class
Method: (§2) MDCKII-hMDR1 cells were obtained from Solvo Biotechnology, Hungary. DMEM, fetal bovine serum, Glutamax-100, Antibiotic/Antimycotic, DMSO, Dulbecco’s phosphate-buffered saline, and MEM Non-essential amino acids were purchased from Sigma (St. Louis, MO, USA). Bi-directional permeability and P-glycoprotein substrate assessments were carried out in Madin-Darby canine epithelial cells with the over-expressed human MDR1 gene (MDCKII-MDR1), coding for P-glycoprotein. Experimental procedures, as well as cell culture conditions, were the same as previously described. Briefly, compounds (10 µM, 1% DMSO v/v) in duplicate were incubated at 37 °C for 60 min with cell monolayer on 24-well Millicell inserts (Millipore, Burlington, MA, USA) with and without the P-glycoprotein inhibitor Elacridar (2 µM, International Laboratory, San Francisco, CA, USA). The inhibition of P-glycoprotein was verified by amprenavir (Moravek Biochemicals Inc, Brea, CA, USA) and monolayer integrity using Lucifer yellow (Sigma, St. Louis, MO, USA). LC-MS/MS measured compound concentrations and Lucifer yellow was measured on an Infinite F500 (Tecan, Männedorf, CH, Switzerland) using excitation of 485 nm and emission of 530 nm.
(§3) All samples were quantified using tandem mass spectrometry coupled to liquid chromatography. Samples were analyzed on a Sciex API4000 Triple Quadrupole Mass Spectrometer (Sciex, Division of MDS Inc., Toronto, Canada) coupled to a Shimadzu Nexera X2 UHPLC frontend (Kyoto, Japan). Samples were injected onto a UHPLC column (HALO2 C18, 2.1 × 20 mm, 2 µm or Luna Omega 1.6 µm Polar C18 100A, 30 × 2.1 mm) and eluted with a gradient at 50 °C. The mobile phase was composed of acetonitrile/water mixture (9/1, with 0.1% formic acid) and 0.1% formic acid in deionized water. The flow rate was 0.7 mL/min under gradient conditions, leading to a total run time of 1.5–2 min. A positive ion mode with turbo spray, an ion source temperature of 550 °C, and a dwell time of 150 ms were utilized for mass spectrometric detection. Quantitation was performed using multiple reaction monitoring (MRM) at the specific transitions for each compound.

[8] = system: P-glycoprotein (human MDR1); assay: MDCKII-MDR1 permeability assay; type: in vitro ADME, canine cells with over-expressed human MDR1 gene; settings: dog, MDCK-MDR1; for Papp A→B at 60 min, 10 µM / Papp B→A at 60 min, 10 µM: 37 °C; for efflux ratio at 60 min, 10 µM: <2 no efflux, >2 active efflux
Method: as §2, §3

[9] = Metabolic stability in mouse liver microsomes; type: in vitro ADME; settings: for Clearance Class.: mouse liver microsomes; for Clearance Values (CL): predicted in vivo hepatic clearance from mouse liver microsome t1/2, 1 µM compound
Excerpt: Mouse liver microsomes were obtained from Corning Life Sciences (Corning, NY, USA). DMSO, nicotinamide adenine dinucleotide phosphate (NADP), glucose-6-phosphate, glucose-6-phosphate dehydrogenase, magnesium chloride, propranolol, caffeine, diclofenac, and phosphate-buffered saline (PBS) were purchased from Sigma (St. Louis, MO, USA). Acetonitrile (ACN) and methanol (MeOH) were obtained from Merck (Darmstadt, Germany). Testosterone was purchased from Steraloids (Newport, RI, USA). Metabolic stability was assessed in mouse liver microsomes. Compounds (final concentration of 1 µM, 0.03% DMSO v/v) were incubated in duplicate in phosphate buffer (50 mM, pH 7.4) at 37 °C together with mouse liver microsomes in the absence and presence of the NADPH cofactor (0.5 mM nicotinamide adenine dinucleotide phosphate, 5 mM glucose-6-phosphate, 1.5 U/mL glucose-6-phosphate dehydrogenase, and 0.5 mM magnesium chloride). Incubation and sampling were performed on a Freedom EVO 200 (Tecan, Männedorf, CH, Switzerland) at […], 10, 20, 30, 45, and 60 min. The reaction was quenched using 3 volumes of a mixture of ACN/MeOH (2:1) containing internal standard (diclofenac), centrifuged, and the supernatants were analyzed using LC-MS/MS. The metabolic activity of the microsomes was verified via simultaneous analysis of several controls including testosterone, propranolol, and caffeine. The in vitro half-life (t1/2) was calculated using GraphPad Prism (v9.0 software) non-linear regression of % of parent compound remaining versus time. In vitro clearance, expressed as µL/min/mg, was estimated from the in vitro half-life (t1/2) and normalized for the protein amount in the incubation mixture, assuming 52.5 mg of protein per gram of liver and using constant values for mouse liver weight/body weight [87.5 g/kg] and mouse liver blood flow (LBF) [131 mL/min/kg].
as §3

IC50 [1] | IC50 [2] | IC50 [3] | IC50 [4] | Permeability [7] | Papp A→B at 60 min, 10 µM [8] | Papp B→A at 60 min, 10 µM [8] | efflux ratio at 60 min, 10 µM [8] | Clearance Class. [9] | Clearance Values (CL) [9] | SMILES | IC50 [5] | antiproliferative activity (in words) [6] | SI (MCF-7) [1] | SI (CFPAC-1) [2] | SI (HT-29) ([3]; SI = [IC50 HFF]/[IC50 HT-29]) | SI (HepG2) ([4]; SI = [IC50 HFF]/[IC50 HepG2])
10 ± 0.4 µM | 19 ± 2.4 µM | 5 ± 0.1 µM | 7 ± 1.5 µM | MODERATE | 2.2 ×10⁻⁶ cm/s | 42.9 ×10⁻⁶ cm/s | 19.5 | LOW (<30% low) |  | O[C@H](Cn1cc(Cn2cnc3c(Cl)ncnc32)nn1)c1ccc(C(F)(F)F)cc1 [Compound (S)-40b, (S)-6-Chloro-9-((1-(2-hydroxy-2-(4-(trifluoromethyl)phenyl)ethyl)-1H-1,2,3-triazol-4-yl)methyl)-9H-purine] | 12 ± 3.4 µM |  |  |  | 2.4 | 1.7
21 ± 1.6 µM | 13 ± 2.2 µM | 19 ± 7.5 µM | 32 ± 16.1 µM | highest permeability and HIGH | 26.5 ×10⁻⁶ cm/s | 90.7 ×10⁻⁶ cm/s | 3.4 |  | 90% | OC(Cn1cc(Cn2ccc3c(Cl)ncnc32)nn1)c1ccc(C(F)(F)F)cc1 (stereo not drawn) [Compound 45b, 4-Chloro-7-((1-(2-hydroxy-2-(4-(trifluoromethyl)phenyl)ethyl)-1H-1,2,3-triazol-4-yl)methyl)-7H-pyrrolo[2,3-d]pyrimidine] | 12 ± 3.1 µM |  | 0.6 | 0.9 |  | 
25 ± 6.4 µM | 15 ± 0.2 µM | 30 ± 0.7 µM | 32 ± 3.2 µM | highest permeability and HIGH | 25.3 ×10⁻⁶ cm/s | 62.7 ×10⁻⁶ cm/s | 2.5 |  | 84% | OC(Cn1cc(Cn2ccc3c(Cl)ncnc32)nn1)c1ccc(Br)cc1 (stereo not drawn) [Compound 44b, 4-Chloro-7-((1-(2-hydroxy-2-(4-bromophenyl)ethyl)-1H-1,2,3-triazol-4-yl)methyl)-7H-pyrrolo[2,3-d]pyrimidine] | 27 ± 11.9 µM |  | 1.1 | 1.8 |  | 

Second part, the compound before the results:

SMILES | IC50 [1] | IC50 [2] | IC50 [3] | IC50 [4] | Permeability [7] | Papp A→B at 60 min, 10 µM [8] | Papp B→A at 60 min, 10 µM [8] | efflux ratio at 60 min, 10 µM [8] | Clearance Class. [9] | Clearance Values (CL) [9] | IC50 [5] | antiproliferative activity (in words) [6] | SI (MCF-7) [1] | SI (CFPAC-1) [2] | SI (HT-29) ([3]; SI = [IC50 HFF]/[IC50 HT-29]) | SI (HepG2) ([4]; SI = [IC50 HFF]/[IC50 HepG2])
OC(Cn1cc(Cn2ccc3ccccc32)nn1)c1ccccc1 (stereo not drawn) [Compound 26b, 1-((1-(2-Hydroxy-2-phenylethyl)-1H-1,2,3-triazol-4-yl)methyl)-1H-indole] | > 100 µM | > 100 µM | > 100 µM | > 100 µM |  |  |  |  |  |  | > 100 µM | deprived of any activity |  |  |  | 
OCC(c1ccc(Br)cc1)n1cc(Cn2ccc3c(Cl)ncnc32)nn1 (stereo not drawn) [Compound 44a, 4-Chloro-7-((1-(2-hydroxy-1-(4-bromophenyl)ethyl)-1H-1,2,3-triazol-4-yl)methyl)-7H-pyrrolo[2,3-d]pyrimidine] | 79 ± 17.6 µM | 69 ± 2 µM | 87 ± 9.9 µM | 83 ± 28.3 µM | HIGH | 10.9 ×10⁻⁶ cm/s | 67.4 ×10⁻⁶ cm/s | 6.2 | MODERATE (30–70% moderate) | 56% | 79 ± 17.6 µM |  | 1.0 | 1.1 |  | 
OC(Cn1cc(Cn2cnc3ccccc32)nn1)c1ccc(Br)cc1 (stereo not drawn) [Compound 34b, 1-((1-(2-Hydroxy-2-(4-bromophenyl)ethyl)-1H-1,2,3-triazol-4-yl)methyl)-1H-benzimidazole] | 39 ± 10.1 µM | 8 ± 3.2 µM | 70 ± 14.5 µM | 64 ± 19.5 µM | MODERATE | 4.3 ×10⁻⁶ cm/s | 69.4 ×10⁻⁶ cm/s | 17.2 | MODERATE (30–70% moderate) | 48% | 32 ± 14.1 µM |  |  | 4.0 |  | 
OC(Cn1cc(Cn2ccc3ccccc32)nn1)c1ccc(Br)cc1 (stereo not drawn) [Compound 29b, 1-((1-(2-Hydroxy-2-(4-bromophenyl)ethyl)-1H-1,2,3-triazol-4-yl)methyl)-1H-indol] | 29 ± 14 µM | 43 ± 9.1 µM | 36 ± 1.4 µM | 35 ± 1.8 µM | highest permeability and HIGH | 18.3 ×10⁻⁶ cm/s | 28.6 ×10⁻⁶ cm/s | 1.7 |  | 92% | 25 ± 4.1 µM |  |  | 0.6 |  | 
OCC(c1ccc(Br)cc1)n1cc(Cn2ccc3ccccc32)nn1 (stereo not drawn) [Compound 29a, 1-((1-(2-Hydroxy-1-(4-bromophenyl)ethyl)-1H-1,2,3-triazol-4-yl)methyl)-1H-indole] | 24 ± 1 µM | 39 ± 2.8 µM | 34 ± 0.3 µM | 29 ± 0.8 µM | HIGH | 10 ×10⁻⁶ cm/s | 25.5 ×10⁻⁶ cm/s | 2.6 | MODERATE (30–70% moderate) | 43% | > 100 µM |  |  | >2.6 |  | 
